Measured values reported in patent US8865659B2, “Compositions for prevention or treatment of Hepatitis C virus containing ginsenoside Rg3 as an active ingredient” (priority 2012, dated 2014).

Columns and labels:
[1] = test system: thioredoxin; experiment: Western blotting against thioredoxin in JFH-1 infected Huh 7.5.1 cells; assay type: cell-based; details: 100 μM, 72 hours
Protocol: To examine the ginsenoside Rg3 effect onto anti-oxidant enzymes, western blotting analysis against thioredoxin, an anti-oxidant enzyme induced by Hepatitis C, was carried out. the analysis was conducted 72 hours after the samples of Huh 7.5.1 cells treated with each 100 μM of seven ginsenosides (Ro, Re, Rg1, Rg2, Rg3, Rh1, Rh2) as described above in the Example 3.
Specifically, western blotting analysis was carried out as follow. First, the above described samples were prepared, mixed with a sample buffer in tubes, and heated at 100° C. for 10 minutes. The tubes were cooled on ice and centrifuged. The electrophoresis was carried out with the prepared samples and molecular weight markers were put in. And then, they were transferred to a PVDF membrane (hydrophobic). After blocking with 5% skin milk for an hour, primary antibodies of thioredoxin was added. After staying overnight at 4° C., washing three times for every 10 minutes, blocking with 5% skin milk for an hour at the room temperature was carried out. After that, each secondary antibody was added and waited one hour for its reaction and washing three times for every 10 minutes were carried out. Then, the membrane was stained by 1:1 mixture of detection reagents A (Luminol Enhancer solution) and B (Peroxide solution) and developed with X ray film.

[2] = biological target: T1, HCV NS3/4A protease (Hepatitis C virus genotype 2a, UniProt Q99IB8); experiment: HCV NS3/4A protease activity (HCV Protease Assay kit, ANASPEC); assay type: biochemical
T1 construct: Diluted HCV NS3 protease to an appropriate concentration in assay buffer; expressed in transfected cells; host or cells: HCV replicon-containing Huh7 cells (membrane fractions)
Protocol: HCV Protease Assay kit (ANASPEC) was used to the following experiments. The components, description and quantity were as follows:
Diluted HCV protease substrate (Component A) 1:50 in assay buffer.
Diluted HCV NS3 protease to an appropriate concentration in assay buffer.
b) Mixed an equal volume of the HCV NS3 protease diluent and Pep4AK diluent. Incubated the mixture at 23-25° C. for 15 min.
The HCV replicon-containing cells (e.g. 1×10^7-10^8 Huh7 cells) grew to 90% confluence. The cells were washed with 1× phosphate-buffered saline once, and then the cells were detached by scraping. The cell pellets were harvested by centrifuging at 900×g for 10 min at 4° C. The cell pellets were resuspended with 1 mL of hypotonic buffer (10 mM Tris-HCl, pH 7.8, 10 mM NaCl), and then the cell pellets were incubated on ice for 15-20 min. The cell pellets were disrupted with 50 strokes of a tight fitting pestle in a Dounce homogenizer. The homogenate was centrifuged at 900×g for 5 min at 4° C. to remove the nuclei, which was in the pellet. […]
For kinetics reading: Immediately started measuring fluorescence intensity at Ex/Em=490 nm/520 nm continuously and recorded data every 5 min for 30 to 60 min.
For end-point reading: Incubated the reaction at room temperature for 30 to 60 minutes. […] Then measured fluorescence intensity at Ex/Em=490 nm/520 nm.

T1 sequence (Q99IB8 1031-1661): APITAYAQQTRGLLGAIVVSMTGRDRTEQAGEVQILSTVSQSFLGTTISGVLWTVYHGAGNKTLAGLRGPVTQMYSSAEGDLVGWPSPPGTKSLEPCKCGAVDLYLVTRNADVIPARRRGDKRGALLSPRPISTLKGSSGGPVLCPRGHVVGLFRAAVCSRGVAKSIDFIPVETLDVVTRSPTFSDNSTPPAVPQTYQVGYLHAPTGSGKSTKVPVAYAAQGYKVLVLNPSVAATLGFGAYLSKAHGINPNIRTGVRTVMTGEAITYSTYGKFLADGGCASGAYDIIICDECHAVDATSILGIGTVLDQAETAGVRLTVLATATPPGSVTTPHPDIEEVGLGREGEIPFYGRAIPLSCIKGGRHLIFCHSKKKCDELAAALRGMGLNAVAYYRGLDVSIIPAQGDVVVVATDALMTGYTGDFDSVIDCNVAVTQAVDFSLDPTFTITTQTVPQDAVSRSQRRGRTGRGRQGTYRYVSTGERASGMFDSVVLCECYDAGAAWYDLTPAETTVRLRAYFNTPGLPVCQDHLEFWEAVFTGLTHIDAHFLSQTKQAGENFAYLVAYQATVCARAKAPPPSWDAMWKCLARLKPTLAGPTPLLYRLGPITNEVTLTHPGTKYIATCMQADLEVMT
T1 sequence (Q99IB8 1662-1715): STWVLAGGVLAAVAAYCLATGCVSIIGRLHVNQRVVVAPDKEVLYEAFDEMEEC

## CC(C)=CCC[C@](C)(O)[C@H]1CC[C@]2(C)[C@@H]1[C@H](O)C[C@@H]1[C@@]3(C)CC[C@H](O[C@@H]4O[C@H](CO)[C@@H](O)[C@H](O)[C@H]4O[C@@H]4O[C@H](CO)[C@@H](O)[C@H](O)[C@H]4O)C(C)(C)[C@@H]3CC[C@]12C [ginsenoside Rg3]
[1]
  thioredoxin: decreased
[2]
  NS3/4 protease activity: inhibited
  NS3/4 protease activity, dose dependence: dose-dependent manner
